Data taken from patent publication EP4741386A1 (Jiangsu Yahong Meditech Co., Ltd., priority 2023, dated 2025).

Tests used:
[1] = biological target: T1, Recombinant human His6-USP1/His6-UAF1 complex protein (Homo sapiens, UniProt O94782); experiment: In vitro inhibitory activity against USP1 (Ubiquitin Rhodamine 110 fluorescence detection, 384-well plate); type: biochemical; settings: Ub-Rho substrate, 1 hour pre-incubation, read after 30 minutes
T1 construct: His6; purchased R&D E-568-050
In short: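 Fluorescence assay measuring inhibition of recombinant human His6-USP1/His6-UAF1 complex with Ubiquitin-Rhodamine 110 substrate. Compounds held as 50 mM stocks in 100% DMSO and dispensed by acoustic transfer into modified Tris assay buffer.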

MDA-MB-436 = experiment: CTG experiment for cell viability (CellTiter-Glo, 96-well plate, 7 days); type: cell-based; settings: Homo sapiens, MDA-MB-436, 168 h, MDA-MB-436 cells, 7 days culture with compound
In short: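 MDA-MB-436 cells in DMEM were plated in 96-well format, treated with compounds, and cultured 7 days at 37°C. After removing the medium, cells were given PBS plus CellTiter-Glo reagent, incubated 10 min at room temperature, and luminescence was read. Curves were fitted as for the enzyme assay.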

T1 sequence (O94782 whole entry): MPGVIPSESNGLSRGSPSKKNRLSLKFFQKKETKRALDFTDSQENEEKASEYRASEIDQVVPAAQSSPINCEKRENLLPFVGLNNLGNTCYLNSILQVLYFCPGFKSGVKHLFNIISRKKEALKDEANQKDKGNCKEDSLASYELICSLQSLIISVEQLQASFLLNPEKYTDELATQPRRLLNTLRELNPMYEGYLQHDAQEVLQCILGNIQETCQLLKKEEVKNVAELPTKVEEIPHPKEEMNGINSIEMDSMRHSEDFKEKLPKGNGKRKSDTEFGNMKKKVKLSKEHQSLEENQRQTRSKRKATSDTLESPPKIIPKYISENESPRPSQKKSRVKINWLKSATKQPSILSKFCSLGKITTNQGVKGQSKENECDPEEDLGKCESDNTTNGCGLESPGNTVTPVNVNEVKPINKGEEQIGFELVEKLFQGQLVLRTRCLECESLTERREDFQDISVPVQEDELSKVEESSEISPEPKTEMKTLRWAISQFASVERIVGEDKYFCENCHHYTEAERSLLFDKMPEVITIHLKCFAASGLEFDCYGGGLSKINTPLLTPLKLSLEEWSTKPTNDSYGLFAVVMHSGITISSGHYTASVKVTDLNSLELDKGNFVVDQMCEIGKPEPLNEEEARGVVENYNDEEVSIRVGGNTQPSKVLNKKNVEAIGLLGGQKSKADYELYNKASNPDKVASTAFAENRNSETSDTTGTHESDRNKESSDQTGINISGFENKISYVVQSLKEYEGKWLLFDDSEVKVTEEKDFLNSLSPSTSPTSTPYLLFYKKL
T1 sequence (Q8TAF3 whole entry partner): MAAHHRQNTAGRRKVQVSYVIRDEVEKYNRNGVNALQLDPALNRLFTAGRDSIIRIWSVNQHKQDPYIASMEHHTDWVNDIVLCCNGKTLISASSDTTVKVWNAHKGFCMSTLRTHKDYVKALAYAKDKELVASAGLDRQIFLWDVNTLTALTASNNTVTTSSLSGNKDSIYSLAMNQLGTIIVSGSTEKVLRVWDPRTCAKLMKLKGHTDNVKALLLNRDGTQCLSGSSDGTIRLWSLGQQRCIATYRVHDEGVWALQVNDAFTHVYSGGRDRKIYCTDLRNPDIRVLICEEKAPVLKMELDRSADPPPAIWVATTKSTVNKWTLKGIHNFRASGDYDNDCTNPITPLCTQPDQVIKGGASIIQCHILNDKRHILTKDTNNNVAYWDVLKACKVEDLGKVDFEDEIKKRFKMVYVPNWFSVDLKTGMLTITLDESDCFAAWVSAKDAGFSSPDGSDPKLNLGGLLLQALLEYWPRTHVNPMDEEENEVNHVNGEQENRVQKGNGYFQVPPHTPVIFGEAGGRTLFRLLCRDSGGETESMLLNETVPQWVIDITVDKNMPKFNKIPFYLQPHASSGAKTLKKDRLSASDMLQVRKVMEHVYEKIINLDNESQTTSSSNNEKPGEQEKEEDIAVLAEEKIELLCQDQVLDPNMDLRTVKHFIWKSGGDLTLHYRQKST

| IC50 [1] | IC50 (MDA-MB-436) | Compound |
| --- | --- | --- |
| 1.4 nM | 2.3 nM | COc1cnc(-c2c(OC)ncnc2C2CC2)nc1N(C)Cc1ccc(-c2nc(C(F)(F)F)cn2C)cc1 [Example 8, 4'-Cyclopropyl-5,6'-dimethoxy-N-methyl-N-(4-(1-methyl-4-(trifluoromethyl)-1H-imidazol-2-yl)benzyl)-[2,5'-bipyrimidin]-4-amine] |
| 9.8 nM | 120 nM | COc1cnn(C2CC2)c1-c1ncc(OC(F)F)c(NCc2ccc(-c3nc(C(F)(F)F)cn3C)cc2)n1 [Example 185, 2-(1-Cyclopropyl-4-methoxy-1H-pyrazol-5-yl)-5-(difluoromethoxy)-N-(4-(1-methyl-4-(trifluoromethyl)-1H-imidazol-2-yl)benzyl)pyrimidin-4-amine] |
| 9.6 nM | 45 nM | COc1ncnc(C2CC2)c1-c1nc(NCc2ccc(-c3nc(C(F)(F)F)cn3C)cc2)c2occc2n1 [Example 35, 2-(4-Cyclopropyl-6-methoxypyrimidin-5-yl)-N-(4-(1-methyl-4-(trifluoromethyl)-1H-imidazol-2-yl)benzyl)furo[3,2-d]pyrimidin-4-amine] |
| 6.8 nM | 301 nM | Cc1cc(C(F)(F)F)nn1-c1ccc(CN2C(=O)COc3cnc(-c4ccccc4C(C)C)nc32)cc1 [Example 15, 2-(2-Isopropylphenyl)-8-(4-(5-methyl-3-(trifluoromethyl)-1H-pyrazol-1-yl)benzyl)-6H-pyrimido[5,4-b][1,4]oxazin-7(8H)-one] |
| 6 nM | 4.7 nM | COc1cnc(-c2c(OC)ncnc2C2CC2)nc1N(C)C[C@H]1CC[C@H](c2nc(C(F)(F)F)cn2C)CC1 [Example S21] |
| 14.4 nM | 243 nM | CC(C)c1ccccc1-c1ncc(O)c(NCc2ccc(-c3nc(C(F)(F)F)cn3C)cc2)n1 [Example 89, 2-(2-Isopropylphenyl)-4-((4-(1-methyl-4-(trifluoromethyl)-1H-imidazol-2-yl)benzyl)amino)pyrimidin-5-ol] |
| 6.1 nM | 181 nM | CC(C)Oc1cnc(-c2ccccc2C(C)C)nc1NCC1CCN(c2nc(C(F)(F)F)cn2C)CC1 [Example 72, 5-Isopropoxy-2-(2-isopropylphenyl)-N-((1-(1-methyl-4-(trifluoromethyl)-1H-imidazol-2-yl)piperidin-4-yl)methyl)pyrimidin-4-amine] |
| 25 nM | 15.7 nM | COc1cnc(-c2c(OC)ncnc2C2CC2)nc1N(O)Cc1ccc(-c2nc(C(F)(F)F)cn2C)cc1 [Example 204, N-(4'-cyclopropyl-5,6'-dimethoxy-[2,5'-bipyrimidin]-4-yl)-N-(4-(1-methyl-4-(trifluoromethyl)-1H-imidazol-2-yl)benzyl)hydroxylamine] |
| 12 nM | 17.1 nM | COc1cnc(-c2c(OC)ncnc2C2CC2)nc1NCc1ccc(-c2nc(C(F)(F)F)cn2CC(F)(F)F)cc1 [Example S7, 4'-Cyclopropyl-56'-dimethoxy-N-(4-(1-(2,2,2-trifluoroethyl)-4-(trifluoromethyl)-1H-imidazol-2-yl)benzyl)-[2,5'-bipyrimidin]-4-amine] |
| 1.7 nM | 39.4 nM | COc1cnc(-c2ccccc2N(C)C)nc1NCc1ccc(-c2nc(C(F)(F)F)cn2C)cc1 [Example 159, 2-(2-(Dimethylamino)phenyl)-5-methoxy-N-(4-(1-methyl-4-(trifluoromethyl)-1H-imidazol-2-yl)benzyl)pyrimidin-4-amine] |
| 12 nM | 32.6 nM | COc1cnc(-c2c(OC)ncnc2C(F)(F)F)nc1N(C)C[C@H]1CC[C@H](c2nc(C(F)(F)F)cn2C(C)C)CC1 [Example S37, N-(((1R,4R)-4-(1-isopropyl-4-(trifluoromethyl)-1H-imidazol-2-yl)cyclohexyl)methyl)-4',5-dimethoxy-N-methyl-6'-(trifluoromethyl)-[2,5'-bipyrimidin]-4-amine] |
| 4.2 nM | 12.2 nM | COc1ncnc(C2CC2)c1-c1ncc(F)c(N(C)Cc2ccc(-c3nc(C(F)(F)F)cn3C(C)C)cc2)n1 [Example 127, 4'-Cyclopropyl-5-fluoro-N-(4-(1-isopropyl-4-(trifluoromethyl)-1H-imidazol-2-yl)benzyl)-6'-methoxy-N-methyl-[2,5'-bipyrimidin]-4-amine] |
| 25 nM | 50 nM | COc1cnc(-c2c(OC)ncnc2C2CC2)nc1N(Cc1ccc(-c2nc(C(F)(F)F)cn2C)cc1)OC [Example 142, N-(4'-Cyclopropyl-5,6'-dimethoxy-[2,5'-bipyrimidin]-4-yl)-O-methyl-N-(4-(1-methyl-4-(trifluoromethyl)-1H-imidazol-2-yl)benzyl)hydroxylamine] |
| 12 nM | 954 nM | COc1cc(CNc2nc(-c3ccccc3C3CC3)ncc2OC)ccc1-c1nc(C(F)(F)F)cn1C [Example 172, 2-(2-Cyclopropylphenyl)-5-methoxy-N-(3-methoxy-4-(1-methyl-4-(trifluoromethyl)-1H-imidazol-2-yl)benzyl)pyrimidin-4-amine] |
| 0.45 nM | 2.9 nM | CC(C)n1ncc(Cl)c1-c1nc(NCc2ccc(-c3nc(C(F)(F)F)cn3C)cc2)c2occc2n1 [Example 167, 2-(4-Chloro-1-isopropyl-1H-pyrazol-5-yl)-N-(4-(1-methyl-4-(trifluoromethyl)-1H-imidazol-2-yl)benzyl)furo[3,2-d]pyrimidin-4-amine] |
| 17 nM | 24.9 nM | COc1cc(-c2nc(C(F)(F)F)cn2C)ccc1CNc1nc(-c2c(OC)ncnc2C2CC2)ncc1OC(F)F [Example 136, 4'-Cyclopropyl-5-(difluoromethoxy)-6'-methoxy-N-(2-methoxy-4-(1-methyl-4-(trifluoromethyl)-1H-imidazol-2-yl)benzyl)-[2,5'-bipyrimidin]-4-amine] |
| 24 nM | 1.2 nM | COc1cnc(-c2c(OC)ncnc2C2CC2)nc1N(C)Cc1ccc(-c2ccccn2)cc1 [Example 19, 4'-Cyclopropyl-5,6'-dimethoxy-N-methyl-N-(4-(pyridin-2-yl)benzyl)-[2,5'-bipyrimidin]-4-amine] |
| 3.6 nM | 87.1 nM | COc1cc(-c2nc(C(F)(F)F)cn2C)ccc1CNc1nc(-c2ccccc2C2CC2)nc2ccoc12 [Example 175, 2-(2-Cyclopropylphenyl)-N-(2-methoxy-4-(1-methyl-4-(trifluoromethyl)-1H-imidazol-2-yl)benzyl)furo[3,2-d]pyrimidin-4-amine] |
| 3.3 nM | 30 nM | COc1cnc(-c2ccccc2C(C)C)nc1NCC1CCC(c2ccccn2)CC1 (centres unmarked) [Example 63, 2-(2-Isopropylphenyl)-5-methoxy-N-((4-(pyridin-2-yl)cyclohexyl)methyl)pyrimidin-4-amine] |
| 10.4 nM | 88.1 nM | COc1ncnc(C2CC2)c1-c1ncc(OC(C)C)c(NCc2ccc(-c3nc(C(F)(F)F)cn3C)cc2)n1 [Example 111, 4'-Cyclopropyl-5-isopropoxy-6'-methoxy-N-(4-(1-methyl-4-(trifluoromethyl)-1H-imidazol-2-yl)benzyl)-[2,5'-bipyrimidin]-4-amine] |
| 9.9 nM | 274 nM | CC(C)Oc1cnc(-c2ccccc2C(C)C)nc1N(C)Cc1ccc(-c2nc(C(F)(F)F)cn2C)cc1 [Example 71, 5-Isopropoxy-2-(2-isopropylphenyl)-N-methyl-N-(4-(1-methyl-4-(trifluoromethyl)-1H-imidazol-2-yl)benzyl)pyrimidin-4-amine] |
| 13 nM | 60.8 nM | COc1cnc(-c2c(Cl)cnn2C(C)C)nc1N(C)CC12CCC(c3nc(C(F)(F)F)cn3C(C)C)(CC1)OC2 [Example S13, 2-(4-Chloro-1-isopropyl-1H-pyrazol-5-yl)-N-((1-(1-isopropyl-4-(trifluoromethyl)-1H-imidazol-2-yl)-2-oxabicyclo[2.2.2]oct-4-yl)methyl)-5-methoxy-N-methylpyrimidin-4-amine] |
| 3.2 nM | 5.6 nM | COc1cnc(-c2c(C)cnn2C2CC2)nc1N(C)Cc1ccc(-c2nc(C(F)(F)F)cn2C)cc1 [Example 198, 2-(1-Cyclopropyl-4-methyl-1H-pyrazol-5-yl)-5-methoxy-N-methyl-N-(4-(1-methyl-4-(trifluoromethyl)-1H-imidazol-2-yl)benzyl)pyrimidin-4-amine] |
| 3.2 nM | 15.8 nM | COc1ncnc(C2CC2)c1-c1ncc(OC(F)F)c(NCc2ccc(-n3nc(C(F)(F)F)cc3C)cc2)n1 [Example 135, 4'-Cyclopropyl-5-(difluoromethoxy)-6'-methoxy-N-(4-(5-methyl-3-(trifluoromethyl)-1H-pyrazol-1-yl)benzyl)-[2,5'-bipyrimidin]-4-amine] |
| 12 nM | 85.7 nM | c1ccc(-c2ccc(CNc3nc(-c4cccnc4C4CC4)nc4ccoc34)cc2)nc1 [Example 155, 2-(2-Cyclopropylpyridin-3-yl)-N-(4-(pyridin-2-yl)benzyl)furo[3,2-d]pyrimidin-4-amine] |
| 13 nM | 22.7 nM | COc1ncnc(C2CC2)c1-c1ncc(Cl)c(NCc2ccc(-c3nc(C(F)(F)F)cn3CF)cc2)n1 [Example 126, 5-Chloro-4'-cyclopropyl-N-(4-(1-(fluoromethyl)-4-(trifluoromethyl)-1H-imidazol-2-yl)benzyl)-6'-methoxy-[2,5'-bipyrimidin]-4-amine] |
| 3.9 nM | 77.5 nM | COc1cnc(-c2c(Cl)cnn2C(C)C)nc1NCc1ccc(-c2ccccn2)cc1 [Example 162, 2-(4-Chloro-1-isopropyl-1H-pyrazol-5-yl)-5-methoxy-N-(4-(pyridin-2-yl)benzyl)pyrimidin-4-amine] |
| 22.4 nM | 950 nM | CC(C)c1ccccc1-c1nc(NCc2ccc(-c3ccccn3)cc2)c2[nH]ccc2n1 [Example 36, 2-(2-Isopropylphenyl)-N-(4-(pyridin-2-yl)benzyl)-5H-pyrrolo[3,2-d]pyrimidin-4-amine] |
